Data on one compound can be found in patent publication US20250262279A1, “DOSE REGIMEN FOR LONG-ACTING GLP1/GLUCAGON RECEPTOR AGONISTS” (Boehringer Ingelheim International GmbH, priority 2021, published 2025).

This data set in a line: Example 3: safety (AEs, laboratory, ECG, vital signs, NASH scores). In kind it is in vivo, human. How it is done: • Semaglutide • Dose: 0.25, 0.25, 0.25, 0.25, 0.5, 0.5, 0.5, 0.5, 1.0 mg (weeks 9−16) once weekly • Mode of administration: Solution for injection
Safety endpoints included Columbia-Suicide Severity Rating Scale (C-SSRS) and various electrocardiograms (ECG) assessments. Safety was assessed based on adverse events (AEs), adverse event of special interest (AESIs), clinical laboratory assessments, vital signs, and physical examination. AESIs were pre-specified in the protocol as pancreatitis and hepatic injury.
Analyses of safety were descriptive.

In the case of `CC[C@H](C)[C@H](NC(=O)[C@H](Cc1ccccc1)NC(=O)[C@H](CCC(=O)O)NC(=O)[C@H](CCCCNC(=O)COCCOCCNC(=O)COCCOCCNC(=O)CC[C@H](NC(=O)CCCCCCCCCCCCCCCCC(=O)O)C(=O)O)NC(=O)[C@H](C)NC(=O)[C@H](C)NC(=O)[C@H](CCC(N)=O)NC(=O)CNC(=O)[C@H](CCC(=O)O)NC(=O)[C@H](CC(C)C)NC(=O)[C@H](Cc1ccc(O)cc1)NC(=O)[C@H](CO)NC(=O)[C@H](CO)NC(=O)[C@@H](NC(=O)[C@H](CC(=O)O)NC(=O)[C@H](CO)NC(=O)[C@@H](NC(=O)[C@H](Cc1ccccc1)NC(=O)[C@@H](NC(=O)CNC(=O)[C@H](CCC(=O)O)NC(=O)C(C)(C)NC(=O)[C@@H](N)Cc1cnc[nH]1)[C@@H](C)O)[C@@H](C)O)C(C)C)C(=O)N[C@@H](C)C(=O)N[C@@H](Cc1c[nH]c2ccccc12)C(=O)N[C@@H](CC(C)C)C(=O)N[C@H](C(=O)N[C@@H](CCCNC(=N)N)C(=O)NCC(=O)N[C@@H](CCCNC(=N)N)C(=O)NCC(=O)O)C(C)C` [semaglutide, reference compound], the deaths result (Ex.3, whole trial) is recorded as “no deaths”. In addition, for the setting “in vivo”, the “AEs leading to discontinuation of trial medication, number of patients” value is on record as 2 N; the “AEs leading to discontinuation of trial medication, percentage of patients” value is “(4.0) %”; the “AEs of special interest, number of patients” value is on record as 0 N; the “Any AE, number of patients” value is listed as 26 N. In addition, under “in vivo”, the “Any AE, percentage of patients” value is “(52.0) %”; the “Investigator defined drug-related AEs, number of patients” value came out at 19 N; the “Investigator defined drug-related AEs, percentage of patients” value is “(38.0) %”; the “Serious AEs, number of patients” value is given as 0 N. For the same compound, for the setting “in vivo”, the “Severe AEs, number of patients” value turned out to be 0 N; the cases of pancreatitis result is “no cases of pancreatitis”; the “patients with SAEs” value is listed as 0 patients; the “patients with SAEs assessed as drug-related by the investigator” value stood at 0 patients. Further, under “in vivo”, the “proportion of patients with PCSA high glucose on treatment” value is listed as 5.0%; the “severe AEs and serious AEs” value is given as “no severe AEs or serious AEs”.
